What was measured:
PI3K-alpha = PI3K-alpha (Homo sapiens, UniProt P42336); assay: PI3K-alpha fluorescence polarization assay; type: biochemical; conditions: 20 μM PIP2, 25 μM ATP; read-out: PI3Kα IC50
Procedure: The reaction buffer was 20 mM HEPES, pH 7.5, 2 mM MgCl2, 0.05% CHAPS; and 0.01% βME (added fresh). The stop/detection buffer was 100 mM HEPES, pH 7.5, 4 mM EDTA, 0.05% CHAPS; ATP 20 mM in water; PIP2 (diC8, Echelon, Salt Lake City Utah cat #P-4508) 1 mM in water (MW=856.5). The GST-GRP was 1.75 mg/mL or 1.4 mg/mL in 10% glycerol. The red detector (TAMRA) was 2.5 μM. Nunc 384-well black polypropylene fluorescent plates were used for PI3K assays.
The assay is run by placing 5 μL of diluted enzyme per well, then 5 μL of diluted compound (or 9.5 μL enzyme then 0.5 μL compound in DMSO) is added and mixed. Then, 10 μL substrate is added to start the reaction. The samples are incubated 30-60 minutes, then the reaction is stopped by adding 20 μL stop/detector mix. PI3K is diluted with reaction buffer (e.g., 5 μL or 7.5 μL PI3K into 620 μL reaction buffer), and 5 μL of diluted enzyme is used per well. A 5 μL portion of reaction buffer or of drug diluted in buffer (e.g., 4 μL/100 so final DMSO is 1% in reaction) is added to each. Pipetting up and down mixes the samples. Alternatively, the enzyme can be diluted to 1215 μL. In this case 9.8 μL is added per well and 0.2 μL compound is added in DMSO.
To prepare 1 mL of substrate solution, 955 μL reaction buffer, 40 μL PIP2, and 2.5 μL ATP are mixed. 10 μL of substrate is added to each well to start the reaction. […] The stop/detector mix is prepared by mixing 4 μL red detector and 1.6 μL or 2.0 μL GST-GRP with 1 mL stop buffer, which results in 10 nM probe and 70 nM GST-GRP. 20 μL of the stop/detector mix is added to each well to stop the reaction. The plates are read after 30-90 minutes keeping the red probe solutions dark. For the zero time point, stop/detector mix is added to the enzyme just before adding substrate. For an extra control, stop/detector mix is added to buffer (no enzyme) and substrate or to just buffer (no substrate). […] The recommended reaction has 0.06 μL per 20 μL (0.015 μg/20 μL) or 0.01125 μg/15 μL or 0.75 μg/mL.
Plates are read on machines with filters for TAMRA. The units are mP with no enzyme controls reading app 190-220 mP units. Fully active enzyme reduces fluorescence polarization down to 70-100 mP after 30 minutes. An active compound raises the mP values halfway to control or to 120-150 mP units.

MDA468 = assay: In vitro cell growth assay (MTS), MDA468; type: cell-based; conditions: 72 h, human breast line MDA468, three days after drug treatment, read-out: MDA IC50
Procedure: (§1) The cell lines used were human prostate lines LNCap and PC3MM2, human breast lines MDA468 and MCF7, human renal line HTB44 (A498), human colon line HCT116, and human ovarian line OVCAR3. Cells were plated in 96-well culture plates. One day following plating, the inhibitors were added to cells. Three days after drug treatment, viable cell densities were determined by metabolic conversion (by viable cells) of the dye MTS, a well-established cell proliferation assay. The assays were performed using an assay kit purchased from Promega Corp. (Madison, Wis.) following the protocol supplied with the kit. The MTS assay results were read in a 96-well plate reader by measuring absorbance at 490 nm. The effect of each treatment was calculated as percent of control growth relative to the vehicle-treated cells grown in the same culture plate.

LNCap = assay: In vitro cell growth assay (MTS), LNCap; type: cell-based; conditions: LNCaP, 72 h, human prostate line, three days after drug treatment
Procedure: as §1

mTOR = mTOR (Homo sapiens, UniProt P42345); assay: mTOR enzyme assay (DELFIA, purified FLAG-TOR, His6-S6K substrate); type: biochemical; set-up: FLAG; conditions: 100 μM ATP, 2 hours
Sequence of mTOR (P42345 1360-2549 limits assumed): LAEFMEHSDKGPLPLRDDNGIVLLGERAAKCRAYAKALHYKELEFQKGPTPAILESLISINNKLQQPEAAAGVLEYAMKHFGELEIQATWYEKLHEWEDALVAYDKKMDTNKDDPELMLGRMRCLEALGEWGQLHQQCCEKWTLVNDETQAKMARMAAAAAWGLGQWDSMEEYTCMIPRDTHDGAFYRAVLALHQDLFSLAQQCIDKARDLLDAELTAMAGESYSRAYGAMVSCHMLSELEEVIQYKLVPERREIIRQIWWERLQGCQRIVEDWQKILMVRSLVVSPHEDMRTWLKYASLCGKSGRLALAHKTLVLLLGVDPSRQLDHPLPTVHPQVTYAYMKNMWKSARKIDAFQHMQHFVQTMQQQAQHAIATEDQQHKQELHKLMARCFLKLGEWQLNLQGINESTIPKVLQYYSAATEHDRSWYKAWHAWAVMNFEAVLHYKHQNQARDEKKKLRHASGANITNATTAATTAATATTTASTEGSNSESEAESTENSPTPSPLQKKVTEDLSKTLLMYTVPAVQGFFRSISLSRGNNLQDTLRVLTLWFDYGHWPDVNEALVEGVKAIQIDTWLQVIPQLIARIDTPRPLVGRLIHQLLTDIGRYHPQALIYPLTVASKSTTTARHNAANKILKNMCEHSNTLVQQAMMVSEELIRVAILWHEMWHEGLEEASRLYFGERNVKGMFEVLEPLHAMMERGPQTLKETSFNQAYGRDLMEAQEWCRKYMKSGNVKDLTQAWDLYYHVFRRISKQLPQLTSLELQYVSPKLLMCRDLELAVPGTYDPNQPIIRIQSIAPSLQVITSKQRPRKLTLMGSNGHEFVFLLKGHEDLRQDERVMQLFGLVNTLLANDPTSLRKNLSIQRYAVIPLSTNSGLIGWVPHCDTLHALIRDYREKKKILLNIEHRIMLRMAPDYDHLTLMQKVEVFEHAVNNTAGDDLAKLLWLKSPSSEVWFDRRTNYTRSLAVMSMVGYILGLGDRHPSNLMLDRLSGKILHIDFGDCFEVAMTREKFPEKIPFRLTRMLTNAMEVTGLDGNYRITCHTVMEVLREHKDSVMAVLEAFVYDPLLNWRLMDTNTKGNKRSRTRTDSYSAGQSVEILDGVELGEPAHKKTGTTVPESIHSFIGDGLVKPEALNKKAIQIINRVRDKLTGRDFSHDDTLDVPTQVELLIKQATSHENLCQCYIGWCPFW

Sequence of PI3K-alpha (P42336 whole entry, species assumed): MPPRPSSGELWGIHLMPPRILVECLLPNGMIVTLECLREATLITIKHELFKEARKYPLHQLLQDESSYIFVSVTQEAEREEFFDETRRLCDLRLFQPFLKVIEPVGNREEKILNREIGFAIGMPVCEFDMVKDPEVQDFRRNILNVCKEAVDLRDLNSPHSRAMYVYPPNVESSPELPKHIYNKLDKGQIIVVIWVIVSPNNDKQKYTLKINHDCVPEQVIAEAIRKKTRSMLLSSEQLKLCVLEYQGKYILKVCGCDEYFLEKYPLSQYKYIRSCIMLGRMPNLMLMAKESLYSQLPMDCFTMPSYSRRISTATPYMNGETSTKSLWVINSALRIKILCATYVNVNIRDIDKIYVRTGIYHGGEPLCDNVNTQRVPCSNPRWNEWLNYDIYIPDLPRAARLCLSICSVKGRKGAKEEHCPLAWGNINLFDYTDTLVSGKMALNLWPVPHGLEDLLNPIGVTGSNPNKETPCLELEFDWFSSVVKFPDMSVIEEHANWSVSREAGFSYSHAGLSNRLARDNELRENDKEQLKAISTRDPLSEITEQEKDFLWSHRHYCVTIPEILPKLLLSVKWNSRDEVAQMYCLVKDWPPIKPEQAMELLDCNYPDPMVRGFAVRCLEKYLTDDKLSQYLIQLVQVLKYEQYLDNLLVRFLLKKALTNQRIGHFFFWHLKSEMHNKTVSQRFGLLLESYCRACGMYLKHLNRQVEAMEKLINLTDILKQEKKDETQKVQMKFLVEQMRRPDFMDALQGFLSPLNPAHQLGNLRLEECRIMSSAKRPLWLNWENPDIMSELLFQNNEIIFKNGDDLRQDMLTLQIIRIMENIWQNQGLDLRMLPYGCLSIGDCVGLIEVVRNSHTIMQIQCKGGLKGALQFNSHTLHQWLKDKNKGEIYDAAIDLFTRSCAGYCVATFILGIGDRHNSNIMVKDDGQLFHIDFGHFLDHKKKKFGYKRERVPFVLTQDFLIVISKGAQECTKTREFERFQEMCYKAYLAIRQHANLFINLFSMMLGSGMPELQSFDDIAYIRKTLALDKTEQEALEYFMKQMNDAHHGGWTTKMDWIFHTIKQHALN
Sequence of PI3K-alpha (P27986 whole entry partner, species assumed): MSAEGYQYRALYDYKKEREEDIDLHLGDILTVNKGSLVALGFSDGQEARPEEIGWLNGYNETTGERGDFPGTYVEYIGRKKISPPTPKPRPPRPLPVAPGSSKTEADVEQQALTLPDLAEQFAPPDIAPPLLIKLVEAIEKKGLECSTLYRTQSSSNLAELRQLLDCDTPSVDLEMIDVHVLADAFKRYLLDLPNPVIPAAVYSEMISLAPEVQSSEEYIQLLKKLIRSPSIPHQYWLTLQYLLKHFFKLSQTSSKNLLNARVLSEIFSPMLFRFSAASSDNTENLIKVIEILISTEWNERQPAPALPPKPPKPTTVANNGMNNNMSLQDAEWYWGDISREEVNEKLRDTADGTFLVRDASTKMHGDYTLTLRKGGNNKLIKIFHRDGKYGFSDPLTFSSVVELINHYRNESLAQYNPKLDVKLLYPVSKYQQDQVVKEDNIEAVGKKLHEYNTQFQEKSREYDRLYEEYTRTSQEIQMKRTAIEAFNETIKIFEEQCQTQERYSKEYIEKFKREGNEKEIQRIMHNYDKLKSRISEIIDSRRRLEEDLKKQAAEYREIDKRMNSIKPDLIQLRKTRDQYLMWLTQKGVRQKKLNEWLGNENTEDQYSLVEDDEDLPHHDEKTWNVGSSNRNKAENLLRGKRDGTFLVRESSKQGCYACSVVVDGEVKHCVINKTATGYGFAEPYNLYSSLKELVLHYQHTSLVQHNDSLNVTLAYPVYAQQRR

Compound | IC50 (PI3K-alpha) [µM] | IC50 (LNCap) [µM] | IC50 (mTOR) [µM] | IC50 (MDA468) [µM]
CN(C)CCOc1ccc(NC(=O)Nc2ccc(-c3nc(N4C5CCC4COC5)cc(N4C5CCC4COC5)n3)cc2)cc1 [1-{4-[2-(dimethylamino)ethoxy]phenyl}-3-[4-(4,6-di-3-oxa-8-azabicyclo[3.2.1]oct-8-ylpyrimidin-2-yl)phenyl]urea] | 1.54 | 0.004 | 0.0025 | 0.009
O=C(Nc1ccncc1)Nc1ccc(-c2nc(N3CC4CCC(C3)O4)cc(N3CC4CCC(C3)O4)n2)cc1 [1-[4-(4,6-di-8-oxa-3-azabicyclo[3.2.1]oct-3-ylpyrimidin-2-yl)phenyl]-3-pyridin-4-ylurea] | 0.125 | 0.028 | 0.00056 | 0.05
CN1CCN(c2ccc(NC(=O)Nc3ccc(-c4cc(N5CC6CCC(C5)O6)nc(N5CC6CCC(C5)O6)n4)cc3)cc2)CC1 [1-[4-(2,6-di-8-oxa-3-azabicyclo[3.2.1]oct-3-ylpyrimidin-4-yl)phenyl]-3-[4-(4-methylpiperazin-1-yl)phenyl]urea] | 0.588 | 0.04 | 0.00955 | 0.16
CS(=O)(=O)Cc1cc(N2CC3CCC(C2)O3)nc(-c2ccc(NC(=O)Nc3ccncc3)cc2)n1 [1-(4-{4-[(methylsulfonyl)methyl]-6-(8-oxa-3-azabicyclo[3.2.1]oct-3-yl)pyrimidin-2-yl}phenyl)-3-pyridin-4-ylurea] | 0.236 | 0.15 | 0.000825 | 0.075
CN1CCN(c2ccc(NC(=O)Nc3ccc(-c4nc(N5CC6CCC(C5)O6)cc(C(F)(F)F)n4)cc3)cc2)CC1 [1-[4-(4-methylpiperazin-1-yl)phenyl]-3-{4-[4-(8-oxa-3-azabicyclo[3.2.1]oct-3-yl)-6-(trifluoromethyl)pyrimidin-2-yl]phenyl}urea] | 0.44 | 0.05 | 0.011 | 0.19
CN1CCN(c2ccc(NC(=O)Nc3ccc(-c4nc(-c5ccccc5)cc(N5CC6CCC(C5)O6)n4)cc3)cc2)CC1 [1-[4-(4-methylpiperazin-1-yl)phenyl]-3-{4-[4-(8-oxa-3-azabicyclo[3.2.1]oct-3-yl)-6-phenylpyrimidin-2-yl]phenyl}urea] | 2.43 | 0.078 | 0.0175 | 0.27
CC(C)Nc1cc(N2C3CCC2COC3)nc(-c2ccc(NC(=O)Nc3ccc(N4CCN(C)CC4)nc3)cc2)n1 [1-{4-[4-(isopropylamino)-6-(3-oxa-8-azabicyclo[3.2.1]oct-8-yl)pyrimidin-2-yl]phenyl}-3-[6-(4-methylpiperazin-1-yl)pyridin-3-yl]urea] | 3.87 | 0.09 | 0.0042 | 0.1
CC(C)Nc1cc(N2C3CCC2COC3)nc(-c2ccc(NC(=O)Nc3ccncc3)cc2)n1 [1-{4-[4-(isopropylamino)-6-(3-oxa-8-azabicyclo[3.2.1]oct-8-yl)pyrimidin-2-yl]phenyl}-3-pyridin-4-ylurea] | 2.5 | 0.013 | 0.0014 | 0.029
CN1CCN(C(=O)c2ccc(NC(=O)Nc3ccc(-c4nc(N5C6CCC5COC6)cc(N5C6CCC5COC6)n4)cc3)cc2)CC1 [1-[4-(4,6-di-3-oxa-8-azabicyclo[3.2.1]oct-8-ylpyrimidin-2-yl)phenyl]-3-{4-[(4-methylpiperazin-1-yl)carbonyl]phenyl}urea] | 0.129 | ≤ 0.0008 | 0.00094 | 0.0008
CN1CCN(c2ccc(NC(=O)Nc3ccc(-c4nc(N5CC6CCC(C5)O6)cc(N5CC6CCC(C5)O6)n4)cc3)cc2)CC1 [1-[4-(4,6-di-8-oxa-3-azabicyclo[3.2.1]oct-3-ylpyrimidin-2-yl)phenyl]-3-[4-(4-methylpiperazin-1-yl)phenyl]urea] | 0.329 | 0.0024 | 0.00255 | 0.019

Continued, in another order:

IC50 (PI3K-alpha) [µM] | IC50 (LNCap) [µM] | IC50 (mTOR) [µM] | Compound | IC50 (MDA468) [µM]
1.93 | 0.21 | 0.03 | CN(Cc1ccc(NC(=O)Nc2ccc(-c3nc(CS(C)(=O)=O)cc(N4CC5CCC(C4)O5)n3)cc2)cc1)C(=O)OC(C)(C)C [tert-butyl methyl(4-{[(4-{4-[(methylsulfonyl)methyl]-6-(8-oxa-3-azabicyclo[3.2.1]oct-3-yl)pyrimidin-2-yl}phenyl)carbamoyl]amino}benzyl)carbamate] | 0.47
0.99 | 1.2 | 0.0028 | CNC(=O)Nc1ccc(-c2cc(N3CC4CCC(C3)O4)nc(-c3ccc(NC(=O)NC)cc3)n2)cc1 [N′,N′″-{[6-(8-oxa-3-azabicyclo[3.2.1]oct-3-yl)pyrimidine-2,4-diyl]di-4,1-phenylene}bis(1-methylurea)] | 1.1
2.93 | 0.31 | 0.004 | O=C(Nc1ccc(-c2cc(N3CC4CCC(C3)O4)nc(-c3ccc(NC(=O)NC4CC4)cc3)n2)cc1)NC1CC1 [N′,N′″-{[6-(8-oxa-3-azabicyclo[3.2.1]oct-3-yl)pyrimidine-2,4-diyl]di-4,1-phenylene}bis(1-cyclopropylurea)] | 1.5
0.518 | 0.03 | 0.00332 | CC(C)Oc1cc(N2CC3CCC(C2)O3)nc(-c2ccc(NC(=O)Nc3ccc(N4CCN(C)CC4)cc3)cc2)n1 [1-{4-[4-(1-methylethoxy)-6-(8-oxa-3-azabicyclo[3.2.1]oct-3-yl)pyrimidin-2-yl]phenyl}-3-[4-(4-methylpiperazin-1-yl)phenyl]urea] | 0.105
0.141 | 0.12 | 0.019 | CN(C)CCOc1ccc(NC(=O)Nc2ccc(-c3nc(-c4ccccc4)cc(N4CC5CCC(C4)O5)n3)cc2)cc1 [1-{4-[2-(dimethylamino)ethoxy]phenyl}-3-{4-[4-(8-oxa-3-azabicyclo[3.2.1]oct-3-yl)-6-phenylpyrimidin-2-yl]phenyl}urea] | 0.3
0.28 | 0.05 | 0.00245 | O=C(Nc1ccncc1)Nc1ccc(-c2nc(N3CC4CCC(C3)O4)cc(C(F)(F)F)n2)cc1 [1-{4-[4-(8-oxa-3-azabicyclo[3.2.1]oct-3-yl)-6-(trifluoromethyl)pyrimidin-2-yl]phenyl}-3-pyridin-4-ylurea] | 0.25
0.102 | 0.056 | 0.0029 | O=C(Nc1ccc(CO)cc1)Nc1ccc(-c2nc(-c3ccccc3)cc(N3CC4CCC(C3)O4)n2)cc1 [1-[4-(hydroxymethyl)phenyl]-3-{4-[4-(8-oxa-3-azabicyclo[3.2.1]oct-3-yl)-6-phenylpyrimidin-2-yl]phenyl}urea] | 0.13
0.101 | 0.18 | 0.0028 | O=C(Nc1ccc(-c2cc(N3CC4CCC(C3)O4)nc(-c3ccc(NC(=O)Nc4cccnc4)cc3)n2)cc1)Nc1cccnc1 [N,N″-{[6-(8-oxa-3-azabicyclo[3.2.1]oct-3-yl)pyrimidine-2,4-diyl]di-4,1-phenylene}bis(3-pyridin-3-ylurea)] | 0.38
1.66 | 0.31 | 0.00185 | CCNC(=O)Nc1ccc(-c2cc(N3CC4CCC(C3)O4)nc(-c3ccc(NC(=O)NCC)cc3)n2)cc1 [N′,N′″-{[6-(8-oxa-3-azabicyclo[3.2.1]oct-3-yl)pyrimidine-2,4-diyl]di-4,1-phenylene}bis(1-ethylurea)] | 0.79
1.81 | 1 | 0.00575 | CCNC(=O)Nc1ccc(-c2nc(CS(C)(=O)=O)cc(N3CC4CCC(C3)O4)n2)cc1 [1-ethyl-3-(4-{4-[(methylsulfonyl)methyl]-6-(8-oxa-3-azabicyclo[3.2.1]oct-3-yl)pyrimidin-2-yl}phenyl)urea] | 1.9
